Patent US9808456B2, “Piperazine thiazole derivatives useful in the treatment of tauopathies such as Alzheimer's disease” (REMYND NV, priority 2011, dated 2017)

How the values were obtained:
[1] = Microsomal stability assay, rat liver microsomes (intrinsic clearance); type: in vitro ADME
Procedure: (§1) Microsomal Stability Testing—Assay Description
(§2) The microsomal stability assay measures the rate of disappearance of a test compound from an incubation containing human or animal liver microsomes and metabolic cofactors (typically NADPH). The assay is primarily used for ranking the relative CYP-mediated metabolism propensities of compounds within a chemical series and as a guide to selecting sufficiently stable compounds for pharmacokinetics and pharmacodynamics experiments. [In addition to CYPs, microsomally located enzymes which also make use of NADPH (such as […]) and those which require no cofactors (such as carboxylesterases) are active.]
(§3) Incubations are performed in 96-well deep-well plates with a final incubation volume of 600 μL. Incubations contain (finally) 1-20 μM test compound, 0.5 mg/mL liver microsomes (typically human, rat or mouse) and NADPH regenerating system. 50 μL aliquots are removed after 1, 3, 6, 9, 15, 25, 35 and 45 minutes and quenched in 150 μL acetonitrile containing internal standard. Samples are then cooled and centrifuged before analysis by LC-MS/MS.
(§4) Log peak area ratio (test compound peak area/internal standard peak area) is plotted against incubation time and a linear fit made to the data with emphasis upon the initial rate of compound disappearance. […]

[2] = Microsomal stability assay, human liver microsomes (intrinsic clearance); type: in vitro ADME; conditions: read-out: CLint. (Hum)
Procedure: as §1, §2, §3, §4

[3] = Lipophilicity (logD) by Carrier mediated distribution system (CAMDIS); type: physicochemical
Procedure: Lipophilicity data were measured with the Carrier mediated distribution system (CAMDIS) as described in EP1705474A1.

M17_3TAU(P301L) cells = assay: Neuroblastoma tauopathy model: inhibition of TAU-induced cytotoxicity (LDH) after retinoic acid differentiation; type: cell-based; conditions: Homo sapiens, 168 h, inhibition of TAU-induced toxicity, 7 days retinoic acid, LDH readout
Description: A TAU expression plasmid was constructed by sub-cloning the cDNA encoding for human TAU-P301L protein, wherein proline at position 301 is substituted by a leucine residue, into mammalian expression vector pcDNA3.1 resulting in the plasmid pcDNA3.1-TAUP301L. Plasmids pcDNA3.1 and pcDNA3.1-TAU P301L were transfected into human neuroblastoma cells (BE-M17; ATCC No. CRL2267™) using lipofectamine reagent and subsequently, independent clonal cell lines with the plasmids stably integrated into the genome were selected by antibiotic resistance selection (Geneticin (G418)), resulting in cell lines M17.pcDNA3 and M17_3TAUP301L. Expression of the TAUP301L gene in the M17_3TAUP301L cells was confirmed by Western blot analysis.
Differentiation of the cells with RA leads to phosphorylation and subsequent aggregation of TAU, inducing a tauopathy in these cells. Cytotoxicity of cells was measured by quantification of lactate dehydrogenase (LDH) levels. In dead cells LDH is leaked out of the cells into the medium due to a loss of plasma-membrane integrity.
Briefly, 3 days preceeding the experiment pre-cultures of M17.pcDNA3 and M17_3TAU(P301L) cells were prepared, starting from a stock culture, at a density of 50.000-100.000 cells/cm2 in detection medium (Optimem Reduced Serum without phenol red (Gibco, Cat. 31985-047) supplemented with 1% fetal calf serum (FCS), 1 mM sodium pyruvate, 1× non-essential amino acids (NEAR), 500 μg/ml G418 and 0.5× antibiotic/antimycotic (ABAM)). At the day of the experiment these precultures were diluted to ˜0, 1.106 cells/ml in detection medium without FCS and 60 μL of this suspension is dispensed per well into a 96-well microtiter plate. After 3 hours of incubation at 37° C./5% CO2 an equal volume of detection medium containing 2.5 μM RA was added and subsequently incubated for 7 days at 37° C./5% CO2. After 7 days, LDH activity was determined using the Promega Cytotox 96 Non-Radioactive cytotoxicity assay (Cat. G1780), according the manufacturer's instructions. Cytotoxicity is measured as the ratio of LDH increase in the supernatant divided by the LDH increase in the total cell suspension (sum of the LDH measured in cells and supernatant).
The M17_3TAU(P301L) cell line makes it possible to assess the ability of novel compounds to inhibit TAU-induced cytotoxicity. […] Compounds were tested for their ability to hamper TAU-induced toxicity at different concentrations, ranging from low non-effective concentrations to high potent concentrations. Afterwards, the dose-dependent inhibition curve was used to calculate their EC50 (Table III).

Row | microsomal CLint [1] [µL/min/mg] | microsomal CLint [2] [µL/min/mg] | logD [3] | Structure (SMILES) | EC50 (M17_3TAU(P301L) cells) [µM]
1 | 80 | 17 | 2.93 | FC1(F)CCN(c2nsc(N3CCN(CCc4ccc(Cl)cc4)CC3)n2)CC1 [Example 2, 1-[2-(4-Chloro-phenyl)-ethyl]-4-[3-(4,4-difluoro-piperidin-1-yl)-[1,2,4]thiadiazol-5-yl]-piperazine] | 0.0536
2 | 48 | 43 | – | Clc1ccc(CCN2CCN(c3nc(Cc4ccc(Cl)cc4)ns3)CC2)cc1 [reference compound] | –
